Laboratory results reported in paper PMC9365693 (Nature, 2022).
Ends that are not written are not given here.

Legend:
Staphylococcus simulans [1] = experiment: Sytox green membrane damage assay, S. simulans; type: cell-based; conditions: Sytox green, Gram-positive bacteria, 20 °C, pH 7.2, 2 min before and 6 min after antibiotic; triplicates
Protocol: (§1) The bacterial cultures were grown overnight at 30 °C in TSB media for S. simulans and at 37 °C in LB medium for Bacillus subtilis. Secondary cultures were grown for 3 h until OD600 = 0.5 was reached. The bacterial cells were then centrifuged at 1,500g for 10 min at 4 °C and washed twice with 10 ml of buffer (10 mM Tris, 100 mM NaCl, 1 mM MgCl2 and 0.5% glucose, pH 7.2). The bacterial cells were resuspended to an OD600 = 10 in the buffer and used for the experiment. […] For the assay, 1 μl of the bacterial suspension was added to 1 ml of buffer. For the ion leakage assays, 1 μl of the DiSC-2 probe from a 1 mM stock was added to the cuvette and the fluorescence was measured between a wavelength of 650 nm and 670 nm (bandwidth of […]) for 2 min before the addition of the antibiotic and 6 min after. For the Sytox green leakage assays, 1 μl of the Sytox green probe from a 0.25 mM stock was added to the cuvette and the fluorescence was measured between a wavelength of 500 nm and 520 nm (bandwidth of […]) for 2 min before the addition of the antibiotic and 6 min after. All experiments were performed in triplicates.

S. simulans = experiment: MIC, S. simulans (given with permeabilization assay concentrations); type: cell-based
Staphylococcus simulans [2] = experiment: DiSC membrane depolarization (ion leakage) assay, S. simulans; type: cell-based; conditions: DiSC-2 probe, Gram-positive bacteria (Fig. 4h and Extended Data Fig. 10b,c), 20 °C, pH 7.2, 2 min before and 6 min after antibiotic; triplicates
Protocol: as §1

B. subtilis = experiment: MIC, B. subtilis (given with permeabilization assay concentrations); type: cell-based, Bacillus subtilis
Protocol: as §1

[3] = species not clearly assigned (S. simulans by word order)

Row | Molecule | membrane damage, Sytox green (in words) (Staphylococcus simulans [1]) | concentration stated as 10× MIC (S. simulans; [3]) | decrease in membrane potential / depolarization (in words) (Staphylococcus simulans [2]) | concentration stated as 1× MIC (S. simulans; [3]) | concentration stated as 10× MIC (B. subtilis) | concentration stated as 1× MIC (S. simulans; S. simulans)
1 | CN[C@H](CC(C)C)C(=O)N[C@H]1C(=O)N[C@@H](CC(N)=O)C(=O)N[C@H]2C(=O)N[C@H]3C(=O)N[C@H](C(=O)N[C@H](C(=O)O)c4cc(O)cc(O)c4-c4cc3ccc4O)[C@H](O)c3ccc(c(Cl)c3)Oc3cc2cc(c3O[C@@H]2O[C@H](CO)[C@@H](O)[C@H](O)[C@H]2O[C@H]2C[C@](C)(N)[C@H](O)[C@H](C)O2)Oc2ccc(cc2Cl)[C@H]1O [vancomycin] | Such effects were again absent | 10 µM |  |  |  | 
2 | nisin |  |  | Membrane depolarization was also observed | 0.01 µM |  | 
3 | plectasin: lipid II binder plectasin (GFGCNGPWDEDDMQCHNHCKSIKGYKGGYCAKGGFVCKCY; ends and bridges not checked; cysteine pairing not given here; UniProt Q53I06 56-95, looked up) [reference compound] | Such effects were again absent |  |  |  | 0.2 µM | 0.5 µM
